According to patent US7906507B2, “Oxadiazoanthracene compounds for the treatment of diabetes” (TransTech Pharma, Inc., priority 2008, dated 2011):
pEC50: −log10 of the molar value.

Molecular target: T1, cloned human GLP-1 receptor (Homo sapiens, UniProt P43220)
T1 construct: expressed in transfected cells; host or cells: CHO or HEK-293 cells
Test: Functional cell-based assay: cAMP functional assay
Conditions: for Emax: 0.5 h, percentage relative to maximal GLP-1-induced cAMP accumulation, na = not active in the assay, read-out: % activation
Procedure: Following overnight incubation of cells, media was removed, and compounds (at concentrations ranging from 0.0001 to 100 μM) were added to monolayer cells in Iscove's modified dulbecco's medium (IMDM), 100 μM RO 20-1724 PDE inhibitor, 0.1% BSA, 2% DMSO in a final volume of 100 μL, and incubated for 30 min at 37° C. 95% O2, 5% CO2 in a humidified incubator. cAMP was quantitated using a homogenous time-resolved fluorescence detection system (cAMP dynamic, CIS bio International).

T1 sequence (P43220 24-463): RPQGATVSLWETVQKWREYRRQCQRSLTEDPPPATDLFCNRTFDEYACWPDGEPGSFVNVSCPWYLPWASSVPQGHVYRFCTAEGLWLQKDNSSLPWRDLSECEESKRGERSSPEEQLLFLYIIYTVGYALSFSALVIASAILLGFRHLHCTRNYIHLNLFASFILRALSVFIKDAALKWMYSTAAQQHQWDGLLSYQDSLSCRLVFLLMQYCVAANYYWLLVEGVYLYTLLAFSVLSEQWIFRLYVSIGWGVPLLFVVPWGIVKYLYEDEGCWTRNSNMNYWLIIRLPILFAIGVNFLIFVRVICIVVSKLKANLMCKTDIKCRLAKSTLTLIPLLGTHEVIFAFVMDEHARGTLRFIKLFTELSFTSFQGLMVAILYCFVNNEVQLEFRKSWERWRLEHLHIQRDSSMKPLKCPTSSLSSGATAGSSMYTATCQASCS

## N#Cc1ccc(-c2ccc(C[C@H](NC(=O)[C@@H]3Cc4cc5c(cc4CN3C(=O)c3cccnc3)OC(c3ccc(OCc4ccc(Cl)c(Cl)c4)cc3)C(=O)N5)C(=O)O)cc2)cc1 (stereo partly drawn) [Example 4, (S)-3-(4′-Cyano-biphenyl-4-yl)-2-{[(S)-3-[4-(3,4-dichloro-benzyloxy)-phenyl]-2-oxo-6-(pyridine-3-carbonyl)-2,3,5,6,7,8-hexahydro-1H-4-oxa-1,6-diaza-anthracene-7-carbonyl]-amino}-propionic acid]
  pEC50: 5.42
  Emax: 20%

## COc1ccc(C(=O)N2Cc3cc4c(cc3C[C@H]2C(=O)N[C@@H](Cc2ccc(-c3ccc(C#N)cc3)cc2)C(=O)O)NC(=O)C(c2ccc(OCc3ccc(Cl)c(Cl)c3)cc2)O4)cc1 (stereo partly drawn) [Example 23, (S)-3-(4′-Cyano-biphenyl-4-yl)-2-{[(S)-3-[4-(3,4-dichloro-benzyloxy)-phenyl]-6-(4-methoxy-benzoyl)-2-oxo-2,3,5,6,7,8-hexahydro-1H-4-oxa-1,6-diaza-anthracene-7-carbonyl]-amino}-propionic acid]
  pEC50: 5.89
  Emax: 65.5%

## CC(C)OC(=O)N1Cc2cc3c(cc2C[C@H]1C(=O)N[C@@H](Cc1ccc(-c2ccc(C#N)cc2)cc1)C(=O)O)N(C)C(=O)C(c1ccc(OCc2ccc(Cl)c(Cl)c2)cc1)O3 (stereo partly drawn) [Example 68, (S)-7-[(S)-1-Carboxy-2-(4′-cyano-biphenyl-4-yl)-ethylcarbamoyl]-3-[4-(3,4-dichloro-benzyloxy)-phenyl]-1-methyl-2-oxo-1,2,3,5,7,8-hexahydro-4-oxa-1,6-diaza-anthracene-6-carboxylic acid isopropyl ester]
  pEC50: 5.96
  Emax: 33%

## N#Cc1ccc(-c2ccc(C[C@H](NC(=O)[C@@H]3Cc4cc5c(cc4CN3C(=O)c3ccccc3)OC(c3ccc(OCc4ccc(Cl)c(C(F)(F)F)c4)cc3)C(=O)N5)C(=O)O)cc2)cc1 (stereo partly drawn) [Example 61, (S)-2-({(S)-6-Benzoyl-3-[4-(4-chloro-3-trifluoromethyl-benzyloxy)-phenyl]-2-oxo-2,3,5,6,7,8-hexahydro-1H-4-oxa-1,6-diaza-anthracene-7-carbonyl}-amino)-3-(4′-cyano-biphenyl-4-yl)-propionic acid]
  pEC50: 6.07
  Emax: 29%

## CC(C)(C)OC(=O)N1Cc2cc3c(cc2C[C@H]1C(=O)N[C@@H](Cc1ccc(-c2ccc(C#N)cc2)cc1)C(=O)O)NC(=O)C(c1ccc(OCc2cnc(Cl)c(Cl)c2)cc1)O3 (stereo partly drawn) [Example 63, (S)-7-[(S)-1-Carboxy-2-(4′-cyano-biphenyl-4-yl)-ethylcarbamoyl]-3-[4-(5,6-dichloro-pyridin-3-ylmethoxy)-phenyl]-2-oxo-1,2,3,5,7,8-hexahydro-4-oxa-1,6-diaza-anthracene-6-carboxylic acid tert-butyl ester]
  pEC50: 6.32
  Emax: 23%

## CCc1ccccc1CN1Cc2cc3c(cc2C[C@H]1C(=O)N[C@@H](Cc1ccc(-c2ccc(C#N)cc2)cc1)C(=O)O)N(C)C(=O)C(c1ccc(OCc2ccc(Cl)c(Cl)c2)cc1)O3 (stereo partly drawn) [Example 71, (S)-3-(4′-Cyano-biphenyl-4-yl)-2-{[(S)-3-[4-(3,4-dichloro-benzyloxy)-phenyl]-6-(2-ethyl-benzyl)-1-methyl-2-oxo-2,3,5,6,7,8-hexahydro-1H-4-oxa-1,6-diaza-anthracene-7-carbonyl]-amino}-propionic acid]
  pEC50: 6.10
  Emax: 49%

## N#Cc1ccc(-c2ccc(C[C@H](NC(=O)[C@@H]3Cc4cc5c(cc4CN3Cc3nccs3)OC(c3ccc(OCc4cccc(Cl)c4)cc3)C(=O)N5)C(=O)O)cc2)cc1 (stereo partly drawn) [Example 67, (S)-2-({(S)-3-[4-(3-Chloro-benzyloxy)-phenyl]-2-oxo-6-thiazol-2-ylmethyl-2,3,5,6,7,8-hexahydro-1H-4-oxa-1,6-diaza-anthracene-7-carbonyl}-amino)-3-(4′-cyano-biphenyl-4-yl)-propionic acid]
  pEC50: 5.94
  Emax: 55%

## N#Cc1ccc(-c2ccc(C[C@H](NC(=O)[C@@H]3Cc4cc5c(cc4CN3C(=O)c3ccc(F)cc3)OC(c3ccc(OCc4ccc(Cl)c(Cl)c4)cc3)C(=O)N5)C(=O)O)cc2)cc1 (stereo partly drawn) [Example 22, (S)-3-(4′-Cyano-biphenyl-4-yl)-2-{[(S)-3-[4-(3,4-dichloro-benzyloxy)-phenyl]-6-(4-fluoro-benzoyl)-2-oxo-2,3,5,6,7,8-hexahydro-1H-4-oxa-1,6-diaza-anthracene-7-carbonyl]-amino}-propionic acid]
  pEC50: 6.05
  Emax: 73.5%

## COc1ccccc1CN1Cc2cc3c(cc2C[C@H]1C(=O)N[C@@H](Cc1ccc(-c2ccc(C#N)cc2)cc1)C(=O)O)NC(=O)C(c1ccc(OCc2ccc(Cl)c(Cl)c2)cc1)O3 (stereo partly drawn) [Example 43, (S)-3-(4′-Cyano-biphenyl-4-yl)-2-{[(S)-3-[4-(3,4-dichloro-benzyloxy)-phenyl]-6-(2-methoxy-benzyl)-2-oxo-2,3,5,6,7,8-hexahydro-1H-4-oxa-1,6-diaza-anthracene-7-carbonyl]-amino}-propionic acid]
  pEC50: 6.30
  Emax: 34%

## N#Cc1ccc(-c2ccc(C[C@H](NC(=O)[C@@H]3Cc4cc5c(cc4CN3C(=O)[C@@H]3CCCO3)OC(c3ccc(OCc4ccc(Cl)c(Cl)c4)cc3)C(=O)N5)C(=O)O)cc2)cc1 (stereo partly drawn) [Example 5, (S)-3-(4′-Cyano-biphenyl-4-yl)-2-{[(S)-3-[4-(3,4-dichloro-benzyloxy)-phenyl]-2-oxo-6-((S)-tetrahydro-furan-2-carbonyl)-2,3,5,6,7,8-hexahydro-1H-4-oxa-1,6-diaza-anthracene-7-carbonyl]-amino}-propionic acid]
  pEC50: 4.52
  Emax: 18%

## N#Cc1ccc(-c2ccc(C[C@H](NC(=O)[C@@H]3Cc4cc5c(cc4CN3C(=O)c3cccs3)OC(c3ccc(OCc4ccc(Cl)c(Cl)c4)cc3)C(=O)N5)C(=O)O)cc2)cc1 (stereo partly drawn) [Example 28, (S)-3-(4′-Cyano-biphenyl-4-yl)-2-{[(S)-3-[4-(3,4-dichloro-benzyloxy)-phenyl]-2-oxo-6-(thiophene-2-carbonyl)-2,3,5,6,7,8-hexahydro-1H-4-oxa-1,6-diaza-anthracene-7-carbonyl]-amino}-propionic acid]
  pEC50: 6.40
  Emax: 29%

## CN(C)C(=O)N1Cc2cc3c(cc2C[C@H]1C(=O)N[C@@H](Cc1ccc(-c2ccc(C#N)cc2)cc1)C(=O)O)NC(=O)C(c1ccc(OCc2ccc(Cl)c(Cl)c2)cc1)O3 (stereo partly drawn) [Example 33, (S)-3-(4′-Cyano-biphenyl-4-yl)-2-({(S)-3-[4-(3,4-dichloro-benzylozy)-phenyl]-2-oxo-6-dimethylcarbamoyl-2-oxo-2,3,5,6,7,8-hexahydro-1H-4-oxa-1,6-diaza-anthracene-7-carbonyl}-amino)-propionic acid]
  pEC50: 5.89
  Emax: 7%

## N#Cc1ccc(-c2ccc(C[C@H](NC(=O)[C@@H]3Cc4cc5c(cc4CN3CC#Cc3ccccc3)OC(c3ccc(OCc4ccc(Cl)c(Cl)c4)cc3)C(=O)N5)C(=O)O)cc2)cc1 (stereo partly drawn) [Example 7, (S)-3-(4′-Cyano-biphenyl-4-yl)-2-{[(S)-3-[4-(3,4-dichloro-benzyloxy)-phenyl]-2-oxo-6-(3-phenyl-prop-2-ynyl)-2,3,5,6,7,8-hexahydro-1H-4-oxa-1,6-diaza-anthracene-7-carbonyl]-amino}-propionic acid]
  pEC50: 6.32
  Emax: 35%

## O=C1Nc2cc3c(cc2OC1c1ccc(OCc2ccc(Cl)c(Cl)c2)cc1)CN(C(=O)c1ccccc1)[C@H](C(=O)N[C@@H](Cc1ccc(-c2ccncc2)cc1)C(=O)O)C3 (stereo partly drawn) [Example 83, (S)-2-({(S)-6-Benzoyl-3-[4-(3,4-dichloro-benzyloxy)-phenyl]-2-oxo-2,3,5,6,7,8-hexahydro-1H-4-oxa-1,6-diaza-anthracene-7-carbonyl}-amino)-3-(4-pyridin-4-yl-phenyl)-propionic acid]
  pEC50: 6.15
  Emax: 18%

## N#Cc1ccc(-c2ccc(C[C@H](NC(=O)[C@@H]3Cc4cc5c(cc4CN3C(=O)C3CCC3)OC(c3ccc(OCc4ccc(Cl)c(Cl)c4)cc3)C(=O)N5)C(=O)O)cc2)cc1 (stereo partly drawn) [Example 12, (S)-3-(4′-Cyano-biphenyl-4-yl)-2-({(S)-6-cyclobutanecarbonyl-3-[4-(3,4-dichloro-benzyloxy)-phenyl]-2-oxo-2,3,5,6,7,8-hexahydro-1H-4-oxa-1,6-diaza-anthracene-7-carbonyl}-amino)-propionic acid]
  pEC50: 6.37
  Emax: 61%

## N#Cc1ccc(-c2ccc(C[C@H](NC(=O)[C@@H]3Cc4cc5c(cc4CN3CC#Cc3ncccn3)OC(c3ccc(OCc4ccc(Cl)c(Cl)c4)cc3)C(=O)N5)C(=O)O)cc2)cc1 (stereo partly drawn) [Example 55, (S)-3-(4′-Cyano-biphenyl-4-yl)-2-{[(S)-3-[4-(3,4-dichloro-benzyloxy)-phenyl]-2-oxo-6-(3-pyrimidin-2-yl-prop-2-ynyl)-2,3,5,6,7,8-hexahydro-1H-4-oxa-1,6-diaza-anthracene-7-carbonyl]-amino}-propionic acid]
  pEC50: 6.67
  Emax: 49.4%

## CC[C@@H](c1ccccc1)N1Cc2cc3c(cc2C[C@H]1C(=O)N[C@@H](Cc1ccc(-c2ccc(Cl)cc2)cc1)C(=O)O)N(C)C(=O)[C@@H](c1ccc(OCc2ccc(Cl)c(Cl)c2)cc1)O3 [Example 90, (S)-3-(4′-Chloro-biphenyl-4-yl)-2-{[(3R,7S)-3-[4-(3,4-dichloro-benzyloxy)-phenyl]-1-methyl-2-oxo-6-((S)-1-phenyl-propyl)-2,3,5,6,7,8-hexahydro-1H-4-oxa-1,6-diaza-anthracene-7-carbonyl]-amino}-propionic acid]
  pEC50: 5.91
  Emax: 43%

## N#Cc1ccc(-c2ccc(C[C@H](NC(=O)[C@@H]3Cc4cc5c(cc4CN3C(=O)c3ccco3)OC(c3ccc(OCc4ccc(Cl)c(Cl)c4)cc3)C(=O)N5)C(=O)O)cc2)cc1 (stereo partly drawn) [Example 20, (S)-3-(4′-Cyano-biphenyl-4-yl)-2-{[(S)-3-[4-(3,4-dichloro-benzyloxy)-phenyl]-6-(furan-2-carbonyl)-2-oxo-2,3,5,6,7,8-hexahydro-1H-4-oxa-1,6-diaza-anthracene-7-carbonyl]-amino}-propionic acid]
  pEC50: 6.38
  Emax: 83.5%
